Measurements as given in article PMC7766155, “Improved Stability and Activity of a Marine Peptide-N6NH2 against Edwardsiella tarda and Its Preliminary Application in Fish” (Marine Drugs, 2020).
Values after ≈ are worked out from the molar mass of the structure shown. Values joined by “and” are separate entries in the source; they are usually repeats but may differ in a detail not shown here. Equal values may be shown once. Read-outs that look alike come from different tables or passages of the source. Where a SMILES comes first, the peptide text is derived from it. Bridges are numbered along the chain shown (N, C = ends).

What was measured:
RAW 264.7 macrophages = type: cell-based, mouse; conditions: 48 h
Experimental: The colorimetric MTT assay was used to determine the effect of peptides on the viability of murine peritoneal RAW 264.7 macrophage cells. Macrophage cells were added into 96-well plates (5 × 10^3 cells/well) and incubated for 24 h at 37 °C (5% (v/v) CO2/air). A series of peptide solutions were added into the cells and incubated for 48 h. The untreated cells were used as the control (Acontrol). The MTT solution was added into plates, incubated for 4 h, and then removed from plates. Dimethyl sulfoxide (DMSO) was then added into plates and the absorbance was measured at 570 nm in a spectrophotometer. The cell viability was calculated using the following formula: Survival rate (%) = […] × 100.

E. tarda [1] = assay: Kirby-Bauer disk diffusion susceptibility; type: cell-based, Edwardsiella tarda; conditions: disc diffusion, MHA, 37 °C 18 h, CLSI standard; 27 antibiotics; Supplementary Table S2
Experimental: The susceptibility of E. tarda to antibiotics was determined by the Kirby-Bauer disk diffusion method according to Clinical Laboratory Standards Institute (CLSI). E. tarda was cultured in TSB medium (10 mL) at 28 °C overnight. The MHA petri dish plates were seeded with a 250 μL bacterial solution (OD600nm = 1.0). […] The diameter of the bacterial inhibition zone was measured, and the results were determined according to the standard of CLSI.

E. tarda [2] = type: cell-based, Edwardsiella tarda
Experimental: (§1) All tests were conducted in triplicate.

Staphylococcus hyicus = assay: microbe, parasite or virus in culture; type: cell-based
Experimental: as §1

[3] = tested on: Gram-negative bacteria (except Pseudomonas aeruginosa CICC21630); assay: MIC, range over strains; type: cell-based; conditions: range over Gram-negative strains of Table 2
Experimental: as §1

E. tarda and A. veronii = type: cell-based
Experimental: as §1

E. coli CVCC1515 = conditions: CVCC1515
E. coli CVCCO157 = conditions: broth microdilution, MHB, 1 × 10^5 CFU/mL, 37 °C 18–24 h, n = 3; some N6 data from ref 19
S. enteritidis CVCC3377 = conditions: CVCC3377
S. pullorum CVCC1789 = conditions: CVCC1789
[4] = tested on: Pseudomonas aeruginosa CICC21630; conditions: CICC21630
[5] = tested on: Staphylococcus aureus ATCC43300; conditions: ATCC43300
S. aureus ATCC546 = conditions: ATCC546
S. aureus ATCC25923 = conditions: ATCC25923
[6] = LPS binding, BODIPY-TR-cadaverine displacement; set-up: species or system E. coli; conditions: 0.5 µM LPS, 5 μM BC, Tris buffer pH 7.4; 0.049 μM to 50 μM; excitation/emission 580/620 nm
E. tarda [7] = assay: Thermal stability (residual antibacterial activity, inhibition zone); type: physicochemical, Edwardsiella tarda; conditions: incubated 1 h at 20, 40, 60, 80 or 100 °C; N6NH2 64 μg/mL, norfloxacin 10 μg/mL; inhibition zone method; triplicate
Experimental: (§2) To evaluate the thermal stability of peptides, N6 and N6NH2 were incubated for 1 h at 4, 20, 40, 60, 80 and 100 °C. To measure the pH stability, peptides were incubated for 3 h in 100 mM glycine-HCl buffer (pH 2.0), sodium acetate buffer (pH 4.0), sodium phosphate buffer (pH 6.0), Tris-HCl buffer (pH 8.0) or glycine-NaOH buffer (pH 10.0). In addition, peptides were incubated for 4 h at 37 °C in pepsin (3,000 U/mg, pH 2.0) and trypsin (250 U/mg, pH 8.0) (10:1, w/w) solutions, respectively. […] After treatment, 30 μL of solutions were taken out to determine the antibacterial activity of peptides against E. tarda by the inhibition zone method. The untreated peptides were used as the control. All tests were conducted in triplicate.

E. tarda [8] = assay: pH stability (residual antibacterial activity, inhibition zone); type: physicochemical, Edwardsiella tarda; conditions: pH values of 2–10, 3 h incubation; N6 128 μg/mL, norfloxacin 10 μg/mL; inhibition zone method vs E. tarda
Experimental: as §2

[9] = tested on: inner membrane of E. tarda; assay: Inner membrane penetration, PI staining, flow cytometry; type: cell-based, Edwardsiella tarda; conditions: norfloxacin-treated control, all time points of Figure 3B
Experimental: After washing twice with PBS, the cells were incubated with PI (50 μg/mL) for 15 min and analyzed using a FACS Calibur Flow Cytometer (BD, San Jose, CA, USA).

E. tarda cells = assay: TEM ultrastructure; type: cell-based, Edwardsiella tarda; conditions: 4 × MIC for 2 h, 1 × 10^8 CFU/mL
Experimental: Mid-log phase E. tarda cells (1 × 10^8 CFU/mL) were incubated with 4 × MIC N6 or N6NH2 for 2 h at 37 °C. The bacterial cells were then centrifuged, washed three times with 0.1 M PBS (pH 7.2) and fixed overnight at 4 °C with 2.5% glutaraldehyde. After washing twice with PBS, the cells were post-fixed with 1% osmium tetroxide (OsO4) for 2 h, dehydrated in a graded ethanol series (from 50% to 100%) for 15 min each time and dried by CO2. The cell samples were sputtered with gold-palladium and observed on a QUANTA200 electron microscopy (FEI, Philips, The Netherlands).
The bacterial cells were treated with peptides as described above, fixed with 2.5% glutaraldehyde at 4 °C overnight and post-fixed with 1% OsO4 for 1 h. After washing three times with PBS, the cells were dehydrated with a graded acetone series (50%, 70%, 85%, 95% and 100%, for 7 min each time) and immersed in mixtures of acetone and resin (3:1, 1:1 and 1:3, 40 min each time). The samples were infiltrated with a pure epoxy resin overnight, embedded in capsules containing embedding medium and polymerized at 45 °C for 3 h and at 65 °C for 24 h, respectively. Thin sections were cut using an ultramicrotome, stained with 1% uranyl acetate and examined by a JEM1400 (JEDL, Tokyo, Japan).

E. tarda [10] = assay: Fish peritonitis model, survival; type: in vivo, O. niloticus; conditions: 1.29 mg/kg norfloxacin i.p. once
Experimental: The fish (O. niloticus, Gift strain, 20 g mean weight) were purchased from Beijing Fisheries Technology Extension Center, Hainan Station, China and were acclimated at 25 ± 1 °C. The fish were fed twice daily with commercial pellets for two weeks before experiments.
O. niloticus (6 fish/group) were intraperitoneally injected with LC100 of E. tarda, followed 30 min later by 200 µL N6NH2 (2.5, 5, and 10 mg/kg, respectively). Norfloxacin was used as a positive control. Fish injected with only bacteria or saline served as negative (untreated) or blank (unchallenged) controls, respectively. […] The fish survival rate was recorded daily for 5 d. Two independent experiments were conducted, including pre-experiment and formal experiment.

E. tarda [11] = assay: Fish peritonitis model, bacterial translocation (organ load); type: in vivo, O. niloticus; conditions: 1.29 mg/kg norfloxacin i.p. once; 24 h after treatment
Experimental: Sixty fish were randomly divided into 6 groups (10 fish/group). […] The remaining untreated group served as negative control. The fish injected with saline were used as the blank control. The challenge and treatment were performed as described above. […] Other fish were used to analyze the effects on tissues and immune genes.

E. tarda [12] = assay: Fish peritonitis model, histopathology; type: in vivo, O. niloticus; conditions: N6NH2 (10 mg/kg) or norfloxacin 1.29 mg/kg; hematoxylin and eosin, light microscope; 3 fish/group
Experimental: The spleen, kidney, liver, intestine and brain samples (3 fish/group) were used for tissue section observation. After 24 h of fixation, all samples were dehydrated with 75–95% ethanol, embedded in paraffin and cut to 6 μm thin sections. Sections were stained with hematoxylin and eosin and observed by a light microscope.

[13] = tested on: Escherichia coli, S. typhimurium, S. enteritidis and S. pullorum; assay: organism not typed; type: cell-based; conditions: range over other Gram-negative strains of Table 2; read-out: MIC
Experimental: as §1

Edwardsiella tarda = assay: MIC, broth microdilution

## CC(C)[C@@H]1NC(=O)CNC(=O)[C@H](CC(N)=O)NC(=O)[C@H](CCCNC(=N)N)NC(=O)[C@H](Cc2ccc(O)cc2)NC(=O)[C@H](C(C)C)NC(=O)[C@@H](NC(=O)[C@@H](NC(=O)[C@H](CC(N)=O)NC(=O)[C@H](Cc2c[nH]c3ccccc23)NC(=O)[C@H](C)NC(=O)[C@H](Cc2ccccc2)NC(=O)CN)C(C)C)CSSC[C@@H](C(=O)N[C@@H](Cc2cnc[nH]2)C(=O)N[C@@H](CCCNC(=N)N)C(=O)N[C@@H](CCCNC(=N)N)C(=O)N[C@@H](C)C(=O)N[C@@H](CC(N)=O)C(N)=O)NC(=O)[C@H](C(C)C)NC(=O)[C@H](CCCNC(=N)N)NC1=O [Peptide N6NH2] (H-GFAWNVCVYRNGVRVCHRRAN-NH2; disulfide 7-16)
RAW 264.7 macrophages
  cell survival rate: > 93.35%

## bacitracin
E. tarda [1]
  susceptibility of E. tarda to antibiotics: resistance

## CC1(C)S[C@@H]2[C@H](NC(=O)[C@H](N)c3ccc(O)cc3)C(=O)N2[C@H]1C(=O)O [amoxicillin]
E. tarda [1]
  susceptibility of E. tarda to antibiotics: resistance

## CC(C)[C@@H]1NC(=O)CNC(=O)[C@H](CC(N)=O)NC(=O)[C@H](CCCNC(=N)N)NC(=O)[C@H](Cc2ccc(O)cc2)NC(=O)[C@H](C(C)C)NC(=O)[C@@H](NC(=O)[C@@H](NC(=O)[C@H](CC(N)=O)NC(=O)[C@H](Cc2c[nH]c3ccccc23)NC(=O)[C@H](C)NC(=O)[C@H](Cc2ccccc2)NC(=O)CN)C(C)C)CSSC[C@@H](C(=O)N[C@@H](Cc2c[nH]cn2)C(=O)N[C@@H](CCCNC(=N)N)C(=O)N[C@@H](CCCNC(=N)N)C(=O)N[C@@H](C)C(=O)N[C@@H](CC(N)=O)C(N)=O)NC(=O)[C@H](C(C)C)NC(=O)[C@H](CCCNC(=N)N)NC1=O [Peptide N6NH2] (H-GFAWNVCVYRNGVRVCHRRAN-NH2; disulfide 7-16)
E. tarda [2]
  MBC: 6.4 µg/mL (≈ 2.59 µM)
Staphylococcus hyicus
  MIC: 3.2 to 12.8 µg/mL
[3]
  MIC: 0.8 to 3.2 µg/mL
E. tarda and A. veronii
  MIC: 0.65 to 1.29 µM
E. coli CVCC1515
  MIC: 0.323 µM (≈ 0.799 µg/mL)
E. coli CVCCO157
  MIC: 0.646 µM (≈ 1.6 µg/mL)
S. enteritidis CVCC3377
  MIC: 0.323 µM (≈ 0.799 µg/mL)
S. pullorum CVCC1789
  MIC: 1.29 µM (≈ 3.19 µg/mL)
[4]
  MIC: 10.34 µM (≈ 25.6 µg/mL)
[5]
  MIC: 2.58 µM (≈ 6.39 µg/mL)
S. aureus ATCC546
  MIC: 2.58 µM (≈ 6.39 µg/mL)
S. aureus ATCC25923
  MIC: 5.17 µM (≈ 12.8 µg/mL)
S. hyicus 437-2
  MIC: 5.17 µM (≈ 12.8 µg/mL)
S. hyicus 15095
  MIC: 1.29 µM (≈ 3.19 µg/mL)

## CC(C)[C@@H]1NC(=O)CNC(=O)[C@H](CC(N)=O)NC(=O)[C@H](CCCNC(=N)N)NC(=O)[C@H](Cc2ccc(O)cc2)NC(=O)[C@H](C(C)C)NC(=O)[C@@H](NC(=O)[C@@H](NC(=O)[C@H](CC(N)=O)NC(=O)[C@H](Cc2c[nH]c3ccccc23)NC(=O)[C@H](C)NC(=O)[C@H](Cc2ccccc2)NC(=O)CN)C(C)C)CSSC[C@@H](C(=O)N[C@@H](Cc2cnc[nH]2)C(=O)N[C@@H](CCCNC(=N)N)C(=O)N[C@@H](CCCNC(=N)N)C(=O)N[C@@H](C)C(=O)N[C@@H](CC(N)=O)C(=O)O)NC(=O)[C@H](C(C)C)NC(=O)[C@H](CCCNC(=N)N)NC1=O [Peptide N6] (H-GFAWNVCVYRNGVRVCHRRAN-OH; disulfide 7-16)
RAW 264.7 macrophages
  cell survival rate: > 93.35%

## O=C1OCCN1/N=C/c1ccc([N+](=O)[O-])o1 [furazolidone]
E. tarda [1]
  susceptibility of E. tarda to antibiotics: resistance

## CC1(C)S[C@@H]2[C@H](NC(=O)[C@H](N)c3ccccc3)C(=O)N2[C@H]1C(=O)O [ampicillin, reference compound]
[6]
  binding to LPS (displacement of BC probe): neither ampicillin nor norfloxacin replaced the BC probe or bound to LPS

## CCn1cc(C(=O)O)c(=O)c2cc(F)c(N3CCNCC3)cc21 [Norfloxacin]
E. tarda [7]
  antimicrobial activity against E. tarda after exposure to temperature: did not change
E. tarda [8]
  antibacterial activity at different pH values: strong antibacterial activity
[9]
  percentage of E. tarda stained with PI: less than 1%
E. tarda cells
  abnormal cells (TEM): not significantly affected
E. tarda [10]; 0.5 h after E. tarda 1.0 × 10^9 CFU/mL i.p., within 2 d, 6 fish/group
  survival rate of fish: 16.7%
E. tarda [10]; time not stated in the sentence (survival recorded for 5 d)
  survival rate of fish: 16.7%
E. tarda [11]
  number of bacteria in organs (blood, spleen, kidney, liver): did not decrease in any organs except the liver
E. tarda [12]
  histological findings in liver, kidney and intestine: obvious pathological changes were found in organs
Staphylococcus hyicus; Staphylococcus hyicus, range over S. hyicus strains of Table 2, read-out: MIC
  MIC: 4 to 16 µg/mL (≈ 12.5 to 50.1 µM)
[13]
  MIC: 0.06 to 1 µg/mL (≈ 0.188 to 3.13 µM)
Edwardsiella tarda
  MIC: 0.5 µg/mL and 1.57 µM
